Measured values taken from ChEMBL document CHEMBL1201862, “PubChem BioAssay data set” (2004).
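These data come from cells grown in 96-well plates and exposed to compound for 48 hours at five concentrations. At the GI50, growth is halved.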 Calls of active or inactive are those of the source. Cut-off read from the data, not from the text of the source: active = GI50 up to about 1.1 µM and inactive = higher.

What was measured:
Test in all cases: DTP human tumour cell line panel, 48 h
OVCAR-3 = system: OVCAR-3
COLO 205 = system: COLO 205
CAKI-1 = system: CAKI-1
EKVX = system: EKVX
K562 = system: K562
HCT-15 = system: HCT-15
MCF7 = system: MCF7
HOP-92 = system: HOP-92
ACHN = system: ACHN
NCI-H23 = system: NCI-H23
SF-295 = system: SF-295
SF-268 = system: SF-268
RXF 393 = system: RXF 393
SR = system: SR
UO-31 = system: UO-31
SN12C = system: SN12C
SK-MEL-28 = system: SK-MEL-28
NCI-H522 = system: NCI-H522
OVCAR-4 = system: OVCAR-4
LOX IMVI = system: LOX IMVI

Measured: GI50

CC1=NN(c2nc(N)nc(CSCc3nc(N)nc(N(C)C)n3)n2)C(C)(C)C1
> 100 µM: HCT-15
inactive: OVCAR-3 > 100 µM | COLO 205 > 100 µM | CAKI-1 > 100 µM | EKVX > 100 µM | K562 18.2 µM | MCF7 > 100 µM | HOP-92 > 100 µM | ACHN > 100 µM | NCI-H23 > 100 µM | SF-295 > 100 µM | SF-268 > 100 µM | RXF 393 > 100 µM | SR > 100 µM | UO-31 > 100 µM | SN12C > 100 µM | SK-MEL-28 > 100 µM | NCI-H522 > 100 µM | OVCAR-4 > 100 µM | LOX IMVI > 100 µM

CC(=O)O[C@H]1[C@@H](N2CCOCC2)C[C@H]2[C@@H]3CC=C4C[C@@H](N5CCCC5)CC[C@]4(C)[C@H]3CC[C@@]21C
inactive: OVCAR-3 > 100 µM | COLO 205 > 100 µM | CAKI-1 > 100 µM | EKVX > 100 µM | K562 24 µM | MCF7 > 100 µM | HOP-92 85.9 µM | ACHN > 100 µM | NCI-H23 > 100 µM | SF-295 > 100 µM | SF-268 > 100 µM | RXF 393 > 100 µM | SR 49.7 µM | UO-31 > 100 µM | SN12C > 100 µM | SK-MEL-28 > 100 µM | NCI-H522 > 100 µM | OVCAR-4 > 100 µM | LOX IMVI > 100 µM
> 100 µM: HCT-15

NS(=O)(=O)c1cc(C(=O)O)c(Cl)c([N+](=O)[O-])c1Cl
> 100 µM: HCT-15
inactive: OVCAR-3 > 100 µM | COLO 205 > 100 µM | CAKI-1 > 100 µM | EKVX > 100 µM | K562 > 100 µM | MCF7 > 100 µM | HOP-92 > 100 µM | ACHN > 100 µM | NCI-H23 > 100 µM | SF-295 > 100 µM | SF-268 > 100 µM | RXF 393 > 100 µM | SR > 100 µM | UO-31 > 100 µM | SN12C > 100 µM | SK-MEL-28 > 100 µM | NCI-H522 > 100 µM | OVCAR-4 > 100 µM | LOX IMVI > 100 µM

NNC(=O)c1ccc(OCc2nc3ccccc3[nH]2)cc1
inactive: OVCAR-3 43.5 µM | COLO 205 71.4 µM | CAKI-1 > 100 µM | EKVX > 100 µM | K562 39.5 µM | MCF7 72.6 µM | HOP-92 > 100 µM | ACHN > 100 µM | NCI-H23 > 100 µM | SF-295 > 100 µM | SF-268 89.3 µM | RXF 393 34.8 µM | SR 25.2 µM | UO-31 48.5 µM | SN12C > 100 µM | SK-MEL-28 > 100 µM | NCI-H522 30 µM | OVCAR-4 > 100 µM | LOX IMVI > 100 µM
> 100 µM: HCT-15

C#C[C@]1(O)CC[C@H]2[C@@H]3CCC4=C/C(=N\OCCN5CCCCC5)CC[C@]4(C)[C@H]3CC[C@@]21C
7.31 µM: HCT-15
inactive: OVCAR-3 5.15 µM | COLO 205 2.12 µM | CAKI-1 6.21 µM | EKVX 8.15 µM | K562 1.65 µM | MCF7 3.34 µM | HOP-92 15 µM | ACHN 8.3 µM | NCI-H23 3.83 µM | SF-295 3.56 µM | SF-268 6.44 µM | RXF 393 2.86 µM | SR 1.48 µM | UO-31 4.23 µM | SN12C 6.89 µM | SK-MEL-28 8.13 µM | NCI-H522 2.47 µM | OVCAR-4 13.6 µM | LOX IMVI 3.58 µM

CCCCn1c(C)c(C(=O)CC)c(C(=O)NCCN2CCN(c3ccccc3Cl)CC2)c1C
15.7 µM: HCT-15
inactive: OVCAR-3 21.1 µM | COLO 205 13.9 µM | CAKI-1 16.5 µM | EKVX 16.3 µM | K562 26.7 µM | MCF7 18.8 µM | HOP-92 14.1 µM | ACHN 16.4 µM | NCI-H23 14.6 µM | SF-295 17.9 µM | SF-268 18.2 µM | RXF 393 19.9 µM | SR 13.7 µM | UO-31 12.8 µM | SN12C 16.1 µM | SK-MEL-28 20.9 µM | NCI-H522 17.4 µM | OVCAR-4 17.6 µM | LOX IMVI 19.3 µM

COC(=O)C[C@H](COCc1ccccc1)NC(=O)C[C@H](COCc1ccccc1)NC(=O)OC(C)(C)C
inactive: OVCAR-3 27.7 µM | COLO 205 > 100 µM | CAKI-1 29.7 µM | EKVX 18.9 µM | K562 40.2 µM | MCF7 19.8 µM | HOP-92 23.7 µM | ACHN 38.6 µM | NCI-H23 35.3 µM | SF-295 34.1 µM | SF-268 20 µM | RXF 393 29.6 µM | SR 39.1 µM | UO-31 32.5 µM | SN12C 26.4 µM | SK-MEL-28 > 100 µM | NCI-H522 21.2 µM | OVCAR-4 18.5 µM | LOX IMVI 53.3 µM
30.7 µM: HCT-15

COC(=O)c1c(C)[nH]c2c1cc(O)c1nc(C)c(C)nc12
inactive: OVCAR-3 > 100 µM | COLO 205 > 100 µM | CAKI-1 > 100 µM | EKVX > 100 µM | K562 > 100 µM | MCF7 50.9 µM | HOP-92 37.9 µM | ACHN 35.5 µM | NCI-H23 49.4 µM | SF-295 23.6 µM | SF-268 49.2 µM | RXF 393 28 µM | SR > 100 µM | UO-31 > 100 µM | SN12C > 100 µM | SK-MEL-28 > 100 µM | NCI-H522 74.8 µM | OVCAR-4 > 100 µM | LOX IMVI > 100 µM
> 100 µM: HCT-15

C=C(C)C(O)C(O)C[C@@H](C)C1CC[C@]23C[C@]12CCC1[C@@]2(C)CCC(OC(C)=O)C(C)(C)C2CC(OC2OC(CO)C(O)C(O)C2O)[C@]13C (stereo not given in full)
40.9 µM: HCT-15
inactive: OVCAR-3 17.6 µM | COLO 205 17.6 µM | CAKI-1 > 100 µM | EKVX 42.2 µM | K562 20.1 µM | MCF7 17 µM | HOP-92 12.9 µM | ACHN 31.6 µM | NCI-H23 19.2 µM | SF-295 18.9 µM | SF-268 18.3 µM | RXF 393 15.4 µM | SR 18.7 µM | UO-31 > 100 µM | SN12C 16.8 µM | SK-MEL-28 22.5 µM | NCI-H522 17 µM | OVCAR-4 16 µM | LOX IMVI 17.6 µM

Cn1c(O)c(C2=Nc3ccccc3C2=O)c2ccccc21
inactive: OVCAR-3 > 100 µM | COLO 205 > 100 µM | CAKI-1 > 100 µM | EKVX > 100 µM | K562 > 100 µM | MCF7 > 100 µM | HOP-92 > 100 µM | ACHN > 100 µM | NCI-H23 > 100 µM | SF-295 > 100 µM | SF-268 > 100 µM | RXF 393 > 100 µM | SR > 100 µM | UO-31 > 100 µM | SN12C > 100 µM | SK-MEL-28 > 100 µM | NCI-H522 > 100 µM | OVCAR-4 > 100 µM | LOX IMVI > 100 µM
> 100 µM: HCT-15
